# How the values were obtained:
# Type in all cases: functional
# MDA-MB-435 = assay: Cytotoxicity against human MDA-MB-435 cells after 48 hrs by SRB assay; settings: MDA-MB-435, 48 h
# MCF7 = assay: Growth inhibition of human MCF7 cells assessed as cell growth at 10^-6 M incubated for 48 hrs by sulforhodamine B assay relative to control; settings: MCF7, 48 h, read-out: Activity
# SR = assay: Growth inhibition of human SR cells assessed as cell growth at 10^-8 M incubated for 48 hrs by sulforhodamine B assay relative to control; settings: read-out: Activity
# HL-60(TB) = assay: Cytotoxicity against human HL-60(TB) cells after 48 hrs by SRB assay; settings: HL-60, 48 h
# CCRF-CEM = assay: Growth inhibition of human CCRF-CEM cells assessed as cell growth at 10^-8 M incubated for 48 hrs by sulforhodamine B assay relative to control; settings: read-out: Activity
# NCI/ADR-RES = assay: Growth inhibition of human NCI/ADR-RES cells assessed as cell growth at 10^-5 M incubated for 48 hrs by sulforhodamine B assay relative to control; settings: read-out: Activity
# K562 [1] = assay: Growth inhibition of human K562 cells assessed as cell growth at 10^-5 M incubated for 48 hrs by sulforhodamine B assay relative to control; settings: K562, 48 h, read-out: Activity
# SNB-19 = assay: Cytotoxicity against human SNB19 cells after 48 hrs by SRB assay; settings: SNB-19, 48 h
# OVCAR-4 [2] = assay: Cytotoxicity against human OVCAR4 cells after 48 hrs by SRB assay; settings: OVCAR-4, 48 h
# Malme-3M = assay: Growth inhibition of human MALME-3M cells assessed as cell growth at 10^-8 M incubated for 48 hrs by sulforhodamine B assay relative to control; settings: read-out: Activity
# NCI-H322M = assay: Growth inhibition of human NCI-H322M cells assessed as cell growth at 10^-7 M incubated for 48 hrs by sulforhodamine B assay relative to control; settings: read-out: Activity
# SNB-75 = assay: Growth inhibition of human SNB75 cells assessed as cell growth at 10^-7 M incubated for 48 hrs by sulforhodamine B assay relative to control; settings: SNB-75, 48 h, read-out: Activity
# IGROV-1 = assay: Cytotoxicity against human IGROV1 cells after 48 hrs by SRB assay; settings: IGROV-1, 48 h, read-out: LC50 (the source's name)
# BT-549 = assay: Growth inhibition of human BT549 cells assessed as cell growth at 10^-7 M incubated for 48 hrs by sulforhodamine B assay relative to control; settings: BT-549, 48 h, read-out: Activity
# U-251 = assay: Cytotoxicity against human U251 cells after 48 hrs by SRB assay; settings: U-251, 48 h
# PC-3 = assay: Growth inhibition of human PC3 cells assessed as cell growth at 10^-8 M incubated for 48 hrs by sulforhodamine B assay relative to control; settings: PC-3, 48 h, read-out: Activity
# SW-620 = assay: Growth inhibition of human SW620 cells assessed as cell growth at 10^-5 M incubated for 48 hrs by sulforhodamine B assay relative to control; settings: SW-620, 48 h, read-out: Activity
# NCI-H226 [3] = assay: Growth inhibition of human NCI-H226 cells assessed as cell growth at 10^-4 M incubated for 48 hrs by sulforhodamine B assay relative to control; settings: NCI-H226, 48 h, read-out: Activity
# MDA-MB-468 = assay: Cytotoxicity against human MDA-MB-468 cells after 48 hrs by SRB assay; settings: MDA-MB-468, 48 h
# A498 = assay: Growth inhibition of human A498 cells assessed as cell growth at 10^-7 M incubated for 48 hrs by sulforhodamine B assay relative to control; settings: A498, 48 h, read-out: Activity
# SK-OV-3 [4] = assay: Growth inhibition of human SKOV3 cells assessed as cell growth at 10^-4 M incubated for 48 hrs by sulforhodamine B assay relative to control; settings: SK-OV-3, 48 h, read-out: Activity
# NCI-H226 [5] = assay: Growth inhibition of human NCI-H226 cells assessed as cell growth at 10^-7 M incubated for 48 hrs by sulforhodamine B assay relative to control; settings: NCI-H226, 48 h, read-out: Activity
# K562 [6] = assay: Growth inhibition of human K562 cells assessed as cell growth at 10^-7 M incubated for 48 hrs by sulforhodamine B assay relative to control; settings: K562, 48 h, read-out: Activity
# DU-145 = assay: Growth inhibition of human DU145 cells assessed as cell growth at 10^-6 M incubated for 48 hrs by sulforhodamine B assay relative to control; settings: DU-145, 48 h, read-out: Activity
# NCI-H460 [7] = assay: Growth inhibition of human NCI-H460 cells assessed as cell growth at 10^-6 M incubated for 48 hrs by sulforhodamine B assay relative to control; settings: NCI-H460, 48 h, read-out: Activity
# OVCAR-4 [8] = assay: Growth inhibition of human OVCAR4 cells assessed as cell growth at 10^-8 M incubated for 48 hrs by sulforhodamine B assay relative to control; settings: OVCAR-4, 48 h, read-out: Activity
# SK-MEL-5 [9] = assay: Cytotoxicity against human SK-MEL-5 cells after 48 hrs by SRB assay; settings: SK-MEL-5, 48 h
# SK-OV-3 [10] = assay: Cytotoxicity against human SKOV3 cells after 48 hrs by SRB assay; settings: SK-OV-3, 48 h
# NCI-H460 [11] = assay: Cytotoxicity against human NCI-H460 cells after 48 hrs by SRB assay; settings: NCI-H460, 48 h
# SK-MEL-5 [12] = assay: Growth inhibition of human SK-MEL-5 cells assessed as cell growth at 10^-6 M incubated for 48 hrs by sulforhodamine B assay relative to control; settings: SK-MEL-5, 48 h, read-out: Activity
# [13] = read-out: LC50 (the source's name)
# [14] = read-out: pLC50 (the source's name) (converted)
smiles,measurement,setting,value
C#C[C@@]1(O)[C@@H](CO)O[C@@H](n2cc(I)c3c(N)ncnc32)[C@@H]1O,GI50,MDA-MB-435; read-out: GI50,0.32 to 0.699 µM
same,CC50,MDA-MB-435; [13],> 100 µM
same,TGI,MDA-MB-435; read-out: TGI,11.7 to 14 µM
same,growth at 1 µM,MCF7,1 to 6%
same,growth at 0.01 µM,SR,94 to 96%
same,GI50,HL-60(TB); read-out: GI50,0.0315 to 0.0678 µM
same,TGI,HL-60(TB); read-out: TGI,0.2 to 0.343 µM
same,CC50,HL-60(TB); [14],> 100 µM
same,growth at 0.01 µM,CCRF-CEM,97%
same,growth at 10 µM,NCI/ADR-RES,-4%
same,growth at 10 µM,K562 [1],7%
same,GI50,SNB-19; read-out: GI50,0.0535 to 0.185 µM
same,CC50,SNB-19; [13],> 100 µM
same,TGI,SNB-19; read-out: TGI,25 to 100 µM
same,GI50,OVCAR-4 [2]; read-out: GI50,0.563 to 1.16 µM
same,TGI,OVCAR-4 [2]; read-out: TGI,> 100 µM
same,CC50,OVCAR-4 [2]; [14],> 100 µM
same,TGI,OVCAR-4 [2]; read-out: pTGI (converted),> 100 µM
same,growth at 0.01 µM,Malme-3M,85 to 98%
same,growth at 0.1 µM,NCI-H322M,69 to 82%
same,growth at 0.1 µM,SNB-75,81 to 83%
same,CC50,IGROV-1,> 100 µM
same,growth at 0.1 µM,BT-549,61 to 76%
same,GI50,U-251; read-out: GI50,0.0673 to 0.0802 µM
same,TGI,U-251; read-out: TGI,10.2 to 100 µM
same,CC50,U-251; [14],> 100 µM
same,growth at 0.01 µM,PC-3,81 to 84%
same,growth at 10 µM,SW-620,4%
same,growth at 100 µM,NCI-H226 [3],4 to 16%
same,GI50,MDA-MB-468; read-out: GI50,0.147 to 0.158 µM
same,CC50,MDA-MB-468; [13],5.51 to 5.65 µM
same,TGI,MDA-MB-468; read-out: TGI,0.421 to 0.746 µM
same,growth at 0.1 µM,A498,74 to 89%
same,growth at 100 µM,SK-OV-3 [4],-9%
same,growth at 0.1 µM,NCI-H226 [5],75 to 95%
same,growth at 0.1 µM,K562 [6],35 to 41%
same,growth at 1 µM,DU-145,19 to 26%
same,growth at 1 µM,NCI-H460 [7],6 to 9%
same,growth at 0.01 µM,OVCAR-4 [8],90 to 104%
same,GI50,SK-MEL-5 [9]; read-out: GI50,0.179 to 0.243 µM
same,CC50,SK-MEL-5 [9]; [13],> 100 µM
same,TGI,SK-MEL-5 [9]; read-out: TGI,2.09 to 5.2 µM
same,GI50,SK-OV-3 [10]; read-out: GI50,0.0194 to 0.0604 µM
same,CC50,SK-OV-3 [10]; [13],> 100 µM
same,TGI,SK-OV-3 [10]; read-out: TGI,0.469 to 1.13 µM
same,GI50,NCI-H460 [11]; read-out: GI50,0.0584 to 0.137 µM
same,CC50,NCI-H460 [11]; [13],75.4 to 100 µM
same,TGI,NCI-H460 [11]; read-out: TGI,1.67 to 2.18 µM
same,growth at 1 µM,SK-MEL-5 [12],14 to 26%
